Data published in US11638709B2, “Rucaparib, Talazoparib, Veliparib, Olaparib and AZD 2461 for treating impaired skin wound healing” (AKRIBES BIOMEDICAL GMBH, priority 2017, dated 2023).

B1: PDGF: Platelet-derived growth factor, protein growth factor (Tonbo Biosciences) (protein, UniProt P01127 82-190, looked up)
Platelet-derived growth …: SLGSLTIAEPAMIAECKTRTEVFEISRRLIDRTNANFLVWPPCVEVQRCSGCCNNRNVQCRPTQVQLRPVQVRKIEIVRKKPIFKKATVTLEDHLACKCETVAAARPVT
modifications: PDGF-BB homodimer

Experiments:
[1] = test system: primary human dermal fibroblasts (HDF); assay: Primary human dermal fibroblast (HDF) proliferation assay (2D) with or without wound exudate; type: cell-based; conditions: for wound exudate-induced inhibition of fibroblast proliferation: FIG. 20, with wound exudate; for fibroblast proliferation in the absence of WE: FIG. 11, 2D fibroblast culture without WE (control); for HDF proliferation with wound exudate #78, plus PDGF / HDF proliferation with wound exudate #78: FIG. 15; for HDF proliferation with wound exudate #78, plus PDGF: compound + PDGF 20 ng/ml in medium + WE #78; for HDF proliferation with wound exudate #78: compound in medium + WE #78; for effect on PDGF-induced induction of proliferation in the absence of WE: with PDGF
Experimental: (§1) Primary human dermal fibroblasts (HDF) were purchased from CELLnTEC, Bern. They were routinely grown in Dulbecco's modified Eagle's medium (DMEM) containing 10% FCS, 2 mM glutamine, and 100 U/ml penicillin/100 μg/ml streptomycin. Media, antibiotics, and glutamine were bought from Lonza. The cells were used at passage 5-15. Cells were trypsinized and seeded at 5000 cells/well in 200 μl into the inner wells of 96-well plates. The outer wells were loaded with sterile water. The cells were allowed to adhere overnight and then incubated for 72 hours at 37° C. under the following conditions: graded compound concentrations or 20 ng/ml PDGF-BB (Tonbo Biosciences) in the absence or presence of different dilutions of sterile-filtered WE in medium. For control samples, 200 μl medium was added instead of specific stimuli. Alternatively, the cells were seeded into 384-well plates at 2500 cells/well directly together with test compounds or growth factors and WE or medium in a total volume of […].
(§2) At the end of the 72-hour incubation period, supernatants were removed for the determination of IL-1ß, and the cells were fixed with 4% paraformaldehyde (Morphisto) for 15 minutes at room temperature and washed 3 times with PBS. A control plate was fixed after the overnight adherence of the cells (day 1) to determine the starting cell number.
Total cellular protein was determined as a measure of cell number by staining the fixed cells with sulforhodamine B (SRB, Sigma). A 0.4% SRB solution in 1% acetic acid was added to the wells for 30 minutes. The wells were then washed with 1% acetic acid until the wash solution remained colorless. […] The average absorbance of the sample representing the day 1 starting cell number (for 96-well plates) was subtracted from the absorbance values of the WE-treated cells.
All experiments were carried out in triplicate for each sample and concentration, and means±standard deviation (SD) were used for the evaluation of the experiment. Results are expressed as percentage of control values for unstimulated cells.
(§3) Low molecular weight compounds (see list in Table 1) were dissolved in DMSO (Bioreagent for cell culture, Sigma) at 10 mM or 100 mM and diluted at least 1:1000 in medium for cellular assays (final DMSO concentration ≤0.1%).
(§4) Cells were incubated with compounds for 72 hours in proliferation assays and up to 8 days for FDM assay (refreshed after 4 days). When compounds were tested for their effect on WE stimulation, the incubation of cells with compounds was started and ended simultaneously with WE-incubation.

[2] = test system: primary human dermal fibroblasts (HDF); assay: Fibroblast-derived matrix (FDM) formation assay (3D) with wound exudate; type: cell-based; conditions: for 3D fibroblast-derived matrix formation assay, activity: FIGS. 9 and 10; for 3D fibroblast culture (FDM formation), effect of PARP inhibitors: FIG. 7, WE from patient #78
Experimental: HDF cells were seeded at 5000 cells/well on day −3 into 96-well tissue culture plates (1250 cells/well for 384-well plates), which had been pre-coated for 1 hour at 37° C. with 0.2% gelatin solution (Sigma). When the cells reached confluence (=day 0), a matrix promoting supplement (vitamin C: 2-phospho-L-ascorbic acid trisodium salt, 100 μg/ml; Sigma) was added together with test samples containing PDGF-BB, TGF-ß1 or graded concentrations of compounds −/+WE as described for the HDF proliferation assay. After 4 days, medium was replaced by fresh vitamin C—and stimulus—as well as compound-containing medium, maintaining the conditions initiated on day 0. TGF-ß1 and PDGF-BB were included as positive controls to promote FDM formation and cell growth, respectively. After a total incubation time of 8 days, FDM production was measured in fixed cultures via SRB staining and evaluated as described above. In some cases, the experiment was stopped and evaluated already on day 4.
as §3, §4

[3] = test system: IL-1ß secretion by primary human dermal fibroblasts; assay: IL-1ß secretion in the HDF proliferation assay with wound exudate (ELISA); type: cell-based; conditions: FIG. 20
Experimental: as §2
IL-1ß levels were determined with a commercial ELISA kit. The amount of IL-1ß contained in the wound exudate added to the cells was subtracted from the total IL-ß in the supernatants in order to determine the cytokine secreted by the cells.

PARP1 = PARP1 (Homo sapiens, UniProt P09874); conditions: cited from earlier work
PARP = conditions: cited from earlier work
[4] = test system: alpha-smooth muscle actin (α-SMA) in human dermal fibroblasts; assay: Immunolocalization of alpha-smooth muscle actin in 2D HDF culture; type: cell-based; conditions: FIG. 16; absence of wound exudate; TGF-ß 20 ng/ml
Experimental: as §1
After fixation with paraformaldehyde, the cells were incubated for 1 hour at room temperature with a monoclonal mouse-anti-human antibody against alpha-smooth muscle actin (α-SMA) from e-Bioscience, washed 3 times with PBS and developed with an Alexa Fluor-labelled donkey-anti-mouse IgG (Molecular Probes). […]

PARP1, sequence (P09874 whole entry, species assumed): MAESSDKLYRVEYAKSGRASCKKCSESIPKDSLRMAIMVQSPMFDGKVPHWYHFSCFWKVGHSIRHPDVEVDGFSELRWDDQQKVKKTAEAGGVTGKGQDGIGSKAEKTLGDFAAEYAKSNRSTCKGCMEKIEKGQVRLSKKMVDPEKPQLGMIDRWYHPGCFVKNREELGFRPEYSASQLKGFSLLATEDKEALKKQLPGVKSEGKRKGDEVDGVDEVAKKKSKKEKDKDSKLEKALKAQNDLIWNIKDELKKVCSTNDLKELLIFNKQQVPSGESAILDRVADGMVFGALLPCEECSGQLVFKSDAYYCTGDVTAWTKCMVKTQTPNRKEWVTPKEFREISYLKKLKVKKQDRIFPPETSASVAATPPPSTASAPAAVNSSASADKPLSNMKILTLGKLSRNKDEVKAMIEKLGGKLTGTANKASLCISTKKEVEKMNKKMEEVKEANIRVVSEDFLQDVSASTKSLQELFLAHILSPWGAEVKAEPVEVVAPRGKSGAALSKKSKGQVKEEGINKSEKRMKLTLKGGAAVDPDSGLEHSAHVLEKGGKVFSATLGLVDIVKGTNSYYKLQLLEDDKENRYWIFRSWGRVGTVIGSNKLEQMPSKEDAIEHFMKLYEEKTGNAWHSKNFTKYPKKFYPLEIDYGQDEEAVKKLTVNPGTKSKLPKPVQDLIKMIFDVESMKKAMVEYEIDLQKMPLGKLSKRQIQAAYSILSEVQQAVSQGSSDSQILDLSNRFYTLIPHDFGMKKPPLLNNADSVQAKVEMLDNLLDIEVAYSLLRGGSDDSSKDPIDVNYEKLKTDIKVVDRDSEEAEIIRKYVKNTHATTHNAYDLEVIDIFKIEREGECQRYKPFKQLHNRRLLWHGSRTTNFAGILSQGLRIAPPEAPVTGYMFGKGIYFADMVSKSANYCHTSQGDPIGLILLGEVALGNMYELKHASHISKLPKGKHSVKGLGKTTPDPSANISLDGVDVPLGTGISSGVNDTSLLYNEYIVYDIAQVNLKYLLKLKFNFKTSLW

| Molecule | 2D fibroblast culture (HDF proliferation), effect of PARP inhibitors ([1]; FIG. 9, WE from patient #43) | 2D fibroblast culture (HDF proliferation), effect of PARP inhibitors ([1]; FIG. 10, WE from patient #78) | wound exudate-induced inhibition of fibroblast proliferation [1] | wound exudate-induced IL-1ß secretion [3] | 2D fibroblast culture (HDF proliferation), effect of PARP inhibitors ([1]; FIG. 8, WE from patient #78) | 3D fibroblast culture (FDM formation), effect of PARP inhibitors [2] | also measured |
| --- | --- | --- | --- | --- | --- | --- | --- |
| 2-phospho-L-ascorbic acid trisodium salt [vitamin C] | – | – | – | – | – | – | 2D fibroblast culture, enhancement of PARP inhibitor compound effects by co-agent ([1]; FIG. 12, WE from patient #78, dexamethasone 3 nM, vitamin C 100 μg/ml): synergistically enhance the PARP inhibitor compound effects; 2D fibroblast culture, enhancement of PARP inhibitor compound effects by co-agent ([1]; FIG. 13, WE from patient #43): synergistically enhance the PARP inhibitor compound effects |
| Oc1cccc2c(O)nccc12 [1,5-IQD, 1,5-Isoquinolinediol] | either inactive or exhibit a very weak activity | either inactive or exhibit a very weak activity | – | – | – | – | 3D fibroblast-derived matrix formation assay, activity [2]: either inactive or only weakly active |
| NC(=O)c1cccc(N)c1 [3-AB, 3-Aminobenzamide] | either inactive or exhibit a very weak activity | either inactive or exhibit a very weak activity | did not show any of these effects | did not show any of these effects | – | – | 3D fibroblast-derived matrix formation assay, activity [2]: either inactive or only weakly active |
| CN(C)Cc1ccc(-c2nc3cccc4c3n2CCNC4=O)cc1 [AG-14351] | – | – | enhanced cell proliferation | reducing IL-1ß secretion | only a very weak effect at a concentration of 10 μM | only a very weak effect at a concentration of 10 μM | inhibits PARP1 with an 1050 (PARP1): low nM range |
| COC1CCN(C(=O)c2cc(Cc3n[nH]c(=O)c4ccccc34)ccc2F)CC1 [AZD-2461] | – | – | enhanced cell proliferation | reducing IL-1ß secretion | strong and consistent positive effect | strong and consistent positive effect | fibroblast proliferation in the absence of WE [1]: either no effect on fibroblast proliferation in the absence of wound exudate, or only a marginal effect |
| O=C(c1cc(Cc2n[nH]c(=O)c3ccccc23)ccc1F)N1CCN(C(=O)C2CC2)CC1 [Olaparib] | – | – | enhanced cell proliferation | reducing IL-1ß secretion | strong and consistent positive effect | strong and consistent positive effect | fibroblast proliferation in the absence of WE [1]: either no effect on fibroblast proliferation in the absence of wound exudate, or only a marginal effect; HDF proliferation with wound exudate #78, plus PDGF [1]: even further enhanced by the addition of PDGF; HDF proliferation with wound exudate #78 [1]: dose-dependent increase of HDF proliferation; effect on PDGF-induced induction of proliferation in the absence of WE ([1]; no WE): either had no effect on PDGF-induced induction of proliferation or showed inhibition of the PDGF effect |
| CN(C)CC(=O)Nc1ccc2[nH]c(=O)c3ccccc3c2c1.Cl [PJ-34] | either inactive or exhibit a very weak activity | either inactive or exhibit a very weak activity | – | – | – | – | 2D fibroblast culture, PARP inhibitor effect ± dexamethasone ± Vit. C ([1]; FIG. 12, WE from patient #78): only a weak effect; 2D fibroblast culture, PARP inhibitor effect ± dexamethasone ± Vit. C ([1]; FIG. 13, WE from patient #43): only a weak effect; 3D fibroblast-derived matrix formation assay, activity [2]: either inactive or only weakly active |
| CNCc1ccc(-c2[nH]c3cc(F)cc4c3c2CCNC4=O)cc1 [Rucaparib] | strong and consistent positive effect | strong and consistent positive effect | enhanced cell proliferation | reducing IL-1ß secretion | strong and consistent positive effect | strong and consistent positive effect | fibroblast proliferation in the absence of WE [1]: either no effect on fibroblast proliferation in the absence of wound exudate, or only a marginal effect; HDF proliferation with wound exudate #78, plus PDGF [1]: even further enhanced by the addition of PDGF; HDF proliferation with wound exudate #78 [1]: dose-dependent increase of HDF proliferation; effect on PDGF-induced induction of proliferation in the absence of WE ([1]; no WE): either had no effect on PDGF-induced induction of proliferation or showed inhibition of the PDGF effect |
| NC(=O)c1cccc2cn(-c3ccc([C@@H]4CCCNC4)cc3)nc12 [niraparib] | – | – | did not show any of these effects | did not show any of these effects | does not show any activity | does not show any activity | inhibits PARP with an 1050 (PARP): low nM range |
| TGF-ß: Transforming growth factor beta | – | – | – | – | – | – | staining for myofibroblast marker alpha-smooth muscle actin (α-SMA) [4]: increases the staining for the myofibroblast marker alpha-smooth muscle actin (α-SMA) |
| B1 | – | – | – | – | – | – | HDF proliferation in the presence of WE #78 ([1]; FIG. 14, WE #78, veliparib 10 μM, talazoparib 1 μM, PDGF 20 ng/ml): has no effect; HDF proliferation in the absence of WE ([1]; FIG. 14, no WE, veliparib 10 μM, talazoparib 1 μM, PDGF 20 ng/ml): induces HDF proliferation; HDF proliferation with wound exudate #78 [1]: inactive |
